Assay type in all cases: in vivo
In assay [1] the test system is primary care patients with major depression disorder. The assay can be described thus: 8-week, double-blind, randomised, placebo-controlled, flexible-dose clinical study. An excerpt: (§1) This has i.a. been found in the Chronic Mild Stress model (Willner P., Psychopharmachology 1997, 134, 319-329).
A total of 471 patients were randomised into the study. The all-patient-treated set comprised 469 patients and the full-analysis set comprised 468 patients.
There was an approximately 3 to 1 ratio of women to men in each treatment group, and almost all patients were Caucasian. The mean age was 43 years (SD 11). At baseline, the mean MADRS total score was approximately 29 for the treatment group, which signifies moderate to severely ill patients.

Assay [2] can be described thus: pharmacological and clinical studies (effect of R-citalopram, potency versus racemate). An excerpt:
This may be shown in functional in-vivo pharmacological models and studies of 5-HT-reuptake effect and or in behaviour models, for example depression models.

The subject of the next assay is animal models. The assay can be described thus: Chronic Mild Stress model.
Excerpt: as §1

A short description of assay [3]: fixed dose studies (MADRS rating scale and Clinical Global Impression). The following applies: escitalopram in a dose of 10 mg.
Setting [4] is: Week 4, last observation carried forward, 10 mg escitalopram, 20 mg citalopram.

As to `CN(C)CCCC1(c2ccc(F)cc2)OCc2cc(C#N)ccc21` (racemic) [citalopram, reference compound], in assay [1] (setting [4]), the “adjusted mean change in MADRS total score versus placebo” value was found to be 1.5 points.

Regarding “(S)-1-[3-(dimethylamino)propyl]-1-4-fluorophenyl)-1,3-dihydro-5-isobenzofurancarbonitdile [escitalopram]”, in assay [2] (pharmacological and clinical studies), the “potency relative to the racemate” value was “substantially more than two times as potent as the racemate”. The speed of response result in the assay with animal models is “faster response than citalopram-racemate”. In addition, the “effect as determined by MADRS rating scale and Clinical Global Impression (severity and improvement)” value in assay [3] is “at least same effect as citalopram in a dose of 40 mg”. Moreover, the onset of effect result in assay [1] (10 mg escitalopram, 20 mg citalopram, versus placebo) is “showed effects after one week”. Further, in assay [1] (Week 1 (p=0.023) to Week 4, observed cases), the “therapeutic effect versus placebo on adjusted mean change in MADRS total score” value is “significantly superior therapeutic effect”. The “CGI improvement and severity subscale versus placebo” value is “statistically significantly superior to placebo” in assay [1] (Week 4, last observation carried forward) and “significantly superior to placebo” in assay [1] (from Week 1 onwards, 4-week period, observed cases). The “adjusted mean change in MADRS total score versus placebo” value in assay [1] (setting [4]) stood at 2.7 points.

Turning to `CN(C)CCC[C@]1(c2ccc(F)cc2)OCc2cc(C#N)ccc21` [R-citalopram, reference compound], the “impact on the effect of escitalopram” value in assay [2] (in vivo) is given as “negative impact”.

(Values after US20040198811A1 (H. Lundbeck A/S, priority 2001, published 2004).)
